Test results: patent publication US9457004B2, “Opsin-binding ligands, compositions and methods of use” (priority 2011, dated 2016)

Tested on: P23H opsin
Test: Rhodopsin purification and regeneration (P23H cells treated with compound, regenerated with 9-cis-retinal, 480-500 nm absorbance)
Conditions: FIG. 1; P23H opsin treated with 20 μM during mutant protein production, relative to vehicle (DMSO) alone

CC(=O)/C=C/C1=C(C)CCCC1(C)C [β-ionone, reference compound]
regeneration of 500 nm absorbing pigment upon treatment with retinal: increase
